Assay results published in patent US7507792B2, “MDA-7 proteins and methods of use thereof” (The Trustees of Columbia University In The City of New York, priority 1993, dated 2009).
“Also recorded” adds a separate entry of the source.

Tests used:
mda-6 = mda-6 expression (Northern blotting); type: cell-based, human
Procedure: (§1) The mass excision of the library was performed using ExAssist helper phage as described above. The SOLR strain of Escherichia coli and cDNA phagemids were mixed at 37° C. for 15 min and plated onto LB plates containing ampicillin and IPTG/X-gal. White colonies were chosen at random, isolated and grown in LB medium. Plasmid minireps and restriction enzyme digestions were performed to confirm the presence of inserts. The inserts were isolated and used as robes for Northern blotting analysis (5,25). […] Radiolabeled probes were generated by random oligonucleotide priming (25). Prehybridization, hybridization, posthybridization washes, and autoradiography were performed as described (5,18,25).
Total cytoplasmic RNA was isolated and Northern blotting hybridization was performed as described (Reddy et al., 1991; Su et al., 1991; Jiang et al., 1992). Ten μg of RNA was denatured with glyoxal/DMSO, electrophoresed on 1.0% agarose gels, transferred to nylon membranes and hybridized to a ^32P-labeled p53 probe (Baker et al., 1990). The nylon membrane was stripped and hybridized to a ^32P-labeled mda-6 probe (Jiang and Fisher, 1993) and then after a second stripping the membrane was hybridized to a ^32P-labeled rat GAPDH probe (Fort et al., 1985), as described previously (Reddy et al., 1991; Su et al., 1991; Jiang et al., 1992). Following hybridization, the filters were washed and exposed for autoradiography (Reddy et al., 1991; Su et al., 1991; Jiang et al., 1992). mda-6 and GAPDH gene expression were also determined by reverse transcription-polymerase chain reaction (RT-PCR) as described (Adollahi et al., 1991; Lin et al., 1994; Jiang et al., 1994b). Total cytoplasmic RNA was treated with 0.5 units DNase (Boehringer-Mannheim Biochemicals)/μg RNA in 15% glycerol, 10 mM Tris, pH 7.5, 2.5 mM MgCl2, 0.1 mM EDTA, 80 mM KCl, 1 mM CaCl2 and 1 unit/ml RNasin (Promega) at 30° C. for 10 min. RNA was extracted with phenol-chloroform, precipitated with sodium acetate/ethanol and RNA pellets were resuspended in diethylpyrocarbonate-treated H2O. One μg of total RNA was reverse transcribed with 200 units of murine leukemia virus reverse transcriptase (Bethesda Research Laboratories) in 20 μl containing 1 mM deoxyribonucleotide triphosphates, 4 mM MgCl2, 10 mM Tris, pH 8.3, 50 mM KCl, 0.001% gelatin and 0.2 μg oligo-dT primer. Samples were adjusted to 100 μl with buffer containing 0.2 mM deoxyribonucleotide triphosphates, 2 mM MgCl2, 10 mM Tris, pH 8.3, 50 mM KCl and 0.001% gelatin. Fifty pmol of each primer, 1.5 units Taq DNA polymerase (Perkin-Elmer Cetus) were added and samples were covered with mineral oil, heated at 95° C. for 5 min and subjected to 25 cycles of PCR in a Perkin-Elmer Thermal Cycler using 1 min denaturation at 94° C., 2 min annealing at 55° C. and 3 min polymerization at 72° C. After extraction with chloroform, 20 μl of products were electrophoresed, blotted onto nylon filters and hybridized with an mda-6 or GAPDH specific probe. The mda-6 primers were 5′ to 3′ […] (SEQ ID NO:26) and […] (SEQ ID NO:27)(corresponding to nt 1527 to 1546) (GenBank accession number U09579); and the GAPDH primers were 5′ to 3′ […] (SEQ ID NO:28)and […] (SEQ ID NO:29)(corresponding to nt 1070 to 1053) (Tokunaga et al., 1987).

mda-7 = mda-7 expression (Northern blotting, RT-PCR); type: cell-based, human; settings: for mda-7 expression: H0-1
Procedure: as §1

[1] = H0-1, 96 hours, doses of FIG. 15 legend
[2] = 96 hours, doses of FIG. 15 legend
[3] = terminally differentiated HL-60 cells, TPA for 2 days, RA for 4 days

## C=C(C)[C@@]12O[C@@]3(c4ccccc4)O[C@@H]1[C@@H]1[C@@H]4O[C@]4(CO)[C@@H](O)[C@]4(O)C(=O)C(C)=C[C@H]4[C@@]1(O3)[C@H](C)[C@H]2OC(=O)/C=C/C=C/c1ccccc1 [MEZ, mezerein]
mda-6; H0-1, 24 hours, doses of FIG. 19, phenyl butyrate 24 hours, 4 or 7 days
  mda-6 expression: increased expression; also recorded: smaller induction of mda-6 expression
mda-6; [1]
  mda-6 expression: no significant or reduced alteration in expression
mda-7; 24 hours, doses of FIG. 19, phenyl butyrate 24 hours, 4 days or 7 days
  mda-7 expression: increased mda-7 expression
mda-7; [2]
  mda-7 expression: Increased expression

## CC1=C(/C=C/C(C)=C/C=C/C(C)=C/C(=O)O)C(C)(C)CCC1 [RA, trans-retinoic acid]
mda-6; [1]
  mda-6 expression: no significant or reduced alteration in expression
mda-7; [2]
  mda-7 expression: does not induce growth changes or induce mda-7 expression
mda-7; LAN human neuroblastoma cells, 5 days
  mda-7 expression (RT-PCR): not induced
mda-7; [3]
  mda-7 expression (RT-PCR): persists

## CCCCCCCCCCCCCC(=O)O[C@@H]1[C@@H](C)[C@@]2(O)[C@@H](C=C(CO)C[C@]3(O)C(=O)C(C)=C[C@@H]23)[C@@H]2C(C)(C)[C@]12OC(C)=O [TPA, 12-O-tetradecanoyl-phorbol-13-acetate]
mda-6; human histiocytic lymphoma, U-937, cells, differentiation and growth arrest
  mda-6 expression: induced
mda-7; HL-60 and U-937 cells
  mda-7 expression (RT-PCR): induced
mda-7; [3]
  mda-7 expression (RT-PCR): persists
